# Experimental data as given in patent US20220185818A1, “PYRROLOHETEROCYCLIC DERIVATIVE, PREPARATION METHOD THEREFOR, AND APPLICATION THEREOF IN MEDICINE” (Jiangsu Hengrui Medicine Co., Ltd., priority 2019, published 2022).
# Assays:
# Colo205 cells = assay: In vitro proliferation inhibition test on Colo205 tumor cells (CellTiter-Glo); type: cell-based; settings: Homo sapiens, COLO 205, 72 h; 3 days of culture, CTG; read-out: IC50 value of the inhibition on in vitro Colo205 tumor cell proliferation
# Experimental: The purpose of this experiment is to test the inhibitory activity of the compounds on the proliferation of Colo205 cells (CCL-222, ATCC) in vitro. The cells were treated in vitro with different concentrations of the compounds. After 3 days of culture, the cell proliferation was tested with CTG (CellTiter-Glo® Luminescent Cell Viability Assay, Promega, Catalog No. G7573) reagent, and the in vitro activity of the compounds was evaluated according to the IC50 value.
# In the following, taking the in vitro proliferation inhibition test method of Colo205 cells as an example, the method in the present disclosure for testing the in vitro proliferation inhibitory activity of the compounds of the present disclosure is described. This method is also applicable to, but not limited to, the in vitro proliferation inhibitory activity test on other tumor cells.
# Colo205 cells were digested, centrifuged and then resuspended. The single cell suspension was mixed well, and the density of viable cells was adjusted to 5.0×10^4 cells/ml with cell culture medium (RPMI1640+2% FBS), and 95 μl/well was added to a 96-well cell culture plate. Only 100 μl medium was added to the peripheral wells of the 96-well plate. The culture plate was incubated in an incubator for 24 hours (37° C., 5% CO2).
# The compound was dissolved in DMSO and prepared into a stock solution with an initial concentration of 20 mM. The initial concentration of the small molecule compound was 2 mM, and then 4-fold diluted into 9 points, and the 10th point is DMSO. Another 96-well plate was taken and 90 μl of cell culture medium (RPMI1640+2% FBS) was added to each well, then 10 μl of different concentrations of the test sample was added to each well. The mixture was mixed well, and then 5 μL of different concentrations of the test sample was added to the cell culture plate with duplicate well for each sample. The culture plate was incubated in an incubator for 3 days (37° C., 5% CO2). The 96-well cell culture plate was taken out, 50 μL CTG solution was added to each well, and the plate was incubated for 10 minutes at room temperature. In a microplate reader (BMG labtech, PHERAstar FS), chemiluminescence was measured with the microplate reader.
# (§1) Microsoft Excel, Graphpad Prism 5 was used to process and analyze the data.
# ERK2 = target: T1, ERK2 (Homo sapiens, UniProt P28482); assay: ERK2 enzyme activity test (ADP-Glo Kinase Assay); type: biochemical; settings: read-out: IC50 value of the inhibition on ERK2 enzyme activity
# T1 construct: purchased R&D 1879-KS-010
# Experimental: (§2) The purpose of this experiment is to detect the inhibitory ability of the compounds on the ERK2 enzyme activity, and evaluate the in vitro activity of the compounds based on the IC50. The ADP-Glo™ Kinase Assay Kit is used in this experiment. Under the action of the enzyme, the substrate is phosphorylated and ADP is produced at the same time. The ADP-Glo reagent is added to remove the unreacted ATP in the reaction system, and the ADP produced by the reaction is detected by the kinase detection reagent. In the presence of the compound, the inhibition rate of the compound is calculated by measuring the signal value.
# (§3) ATP was diluted to 500 μM with the buffer. The compound was dissolved in DMSO to prepare a stock solution with an initial concentration of 20 mM, and then Bravo (SGC120TH34702, Agilent Technologies) was used to dilute the stock solution to desired concentrations. Finally, a 3 μL of a mixed solution of enzyme and substrate, and 1 μL of different concentrations of the compound (the initial concentration is 50 μM, 4-fold dilution) were added to each well of the 384-well plate, and the plate was incubated at 30° C. for 10 minutes, and finally 1 μL of 500 μM ATP solution was added to each well, and the plate was incubated at 30° C. for 2 hours. Then 5 μL of ADP-Glo was added, and the plate was incubated at 30° C. for 40 minutes. Then 10 μL of kinase detection buffer was added, and the plate was incubated at 30° C. for 40 minutes. The 384-well plate was taken out and placed in a microplate reader (BMG labtech, PHERAstar FS), and the chemiluminescence was measured by the microplate reader.
# as §1
# ERK1 = target: T2, ERK1 (Homo sapiens, UniProt P27361); assay: ERK1 enzyme activity test (ADP-Glo Kinase Assay); type: biochemical; settings: read-out: IC50 value of the inhibition on ERK1 enzyme activity
# T2 construct: purchased R&D 1879-KS-010
# Experimental: as §2, with “the ERK1” for “the ERK2”, “detected with” for “detected by”
# as §3, with “diluted to 300 μM with” for “diluted to 500 μM with”, “Finally, a […] of” for “Finally, a 3 μL of”, “and 1 μL, of different” for “and 1 μL of different”, “μL of 300 μM ATP” for “μL of 500 μM ATP”, “μL of Kinase detection buffer” for “μL of kinase detection buffer”
# as §1
# T2 sequence (P27361 whole entry): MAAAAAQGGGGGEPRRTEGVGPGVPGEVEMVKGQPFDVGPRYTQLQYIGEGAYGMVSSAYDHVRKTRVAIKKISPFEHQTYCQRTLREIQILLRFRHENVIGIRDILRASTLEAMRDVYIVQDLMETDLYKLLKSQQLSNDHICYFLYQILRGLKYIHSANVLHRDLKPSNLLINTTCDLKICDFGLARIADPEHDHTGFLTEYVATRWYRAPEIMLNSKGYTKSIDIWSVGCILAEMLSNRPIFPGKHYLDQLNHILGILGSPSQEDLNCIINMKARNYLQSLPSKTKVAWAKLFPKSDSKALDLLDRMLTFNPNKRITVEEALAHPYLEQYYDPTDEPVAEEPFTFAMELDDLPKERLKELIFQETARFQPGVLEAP
# T1 sequence (P28482 2-360 limits assumed): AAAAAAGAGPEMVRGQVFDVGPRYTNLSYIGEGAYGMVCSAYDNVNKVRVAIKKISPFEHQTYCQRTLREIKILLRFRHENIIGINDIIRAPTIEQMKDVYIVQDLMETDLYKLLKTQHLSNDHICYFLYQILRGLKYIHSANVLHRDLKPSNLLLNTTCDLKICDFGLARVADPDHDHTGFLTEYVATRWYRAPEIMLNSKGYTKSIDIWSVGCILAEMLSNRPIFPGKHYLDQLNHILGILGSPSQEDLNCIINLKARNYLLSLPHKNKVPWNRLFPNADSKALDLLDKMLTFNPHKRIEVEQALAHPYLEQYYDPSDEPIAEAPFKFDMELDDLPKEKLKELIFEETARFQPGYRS
Compound,IC50 (Colo205 cells) [nM],IC50 (ERK2) [nM],IC50 (ERK1) [nM]
"Cc1cnc(Nc2ccnn2C)nc1-c1cc2n(c1)C(=O)N([C@H](CO)c1ccc(Cl)c(F)c1)C2 [Example 14, (S)-2-(1-(4-Chloro-3-fluorophenyl)-2-hydroxyethyl)-6-(5-methyl-2-((1-methyl-1H-pyrazol-5-yl)amino)pyrimidin-4-yl)-1H-pyrrolo[1,2-c]imidazol-3(2H)-one]",92,5,
"Cc1cnc(Nc2ccnn2C)nc1-c1cc2n(c1)C(=O)N([C@H](CO)c1ccc(F)c(Cl)c1)C2 [Example 6, (S)-2-(1-(3-Chloro-4-fluorophenyl)-2-hydroxyethyl)-6-(5-methyl-2-((1-methyl-1H-pyrazol-5-yl)amino)pyrimidin-4-yl)-1H-pyrrolo[1,2-c]imidazol-3(2H)-one]",74,10,14
"C[C@@H](CO)Nc1ncc(Cl)c(-c2cc3n(c2)C(=O)N([C@H](CO)c2cccc(Cl)c2)C3)n1 [Example 5, 6-(5-Chloro-2-(((S)-1-hydroxypropan-2-yl)amino)pyrimidin-4-yl)-2-((S)-1-(3-chlorophenyl)-2-hydroxyethyl)-1H-pyrrolo[1,2-c]imidazol-3(2H)-one]",81,,10
"O=C1N([C@H](CO)c2cccc(Cl)c2)Cc2cc(-c3nc(NC4CCOCC4)ncc3Cl)cn21 [Example 4, (S)-6-(5-Chloro-2-((tetrahydro-2H-pyran-4-yl)amino)pyrimidin-4-yl)-2-(1-(3-chlorophenyl)-2-hydroxyethyl)-1H-pyrrolo[1,2-c]imidazol-3(2H)-one]",82,6,
"Cc1cnc(Nc2ccnn2C)nc1-c1cc2n(c1)C(=O)N(Cc1ccc(F)c(F)c1)C2 [Example 18, 2-(3,4-Difluorobenzyl)-6-(5-methyl-2-((1-methyl-1H-pyrazol-5-yl)amino)pyrimidin-4-yl)-1H-pyrrolo[1,2-c]imidazol-3(2H)-one]",,16,
"Cn1nccc1Nc1nccc(-c2cc3n(c2)C(=O)N([C@H](CO)c2ccc(F)c(Cl)c2)C3)n1 [Example 16, (S)-2-(1-(3-Chloro-4-fluorophenyl)-2-hydroxyethyl)-6-(2-((1-methyl-1H-pyrazol-5-yl)amino)pyrimidin-4-yl)-1H-pyrrolo[1,2-c]imidazol-3(2H)-one]",180,44,70
"Cn1nccc1Nc1nccc(-c2cc3n(c2)C(=O)N([C@H](CO)c2cccc(F)c2)C3)n1 [Example 19, (S)-2-(1-(3-Fluorophenyl)-2-hydroxyethyl)-6-(2-((1-methyl-1H-pyrazol-5-yl)amino)pyrimidin-4-yl)-1H-pyrrolo[1,2-c]imidazol-3(2H)-one]",101,20,24
"Cn1nccc1Nc1nccc(-c2cc3n(c2)C(=O)N([C@H](CO)c2ccc(Cl)cc2)C3)n1 [Example 21, (S)-2-(1-(4-Chlorophenyl)-2-hydroxyethyl)-6-(2-((1-methyl-1H-pyrazol-5-yl)amino)pyrimidin-4-yl)-1H-pyrrolo[1,2-c]imidazol-3(2H)-one]",120,45,67
"Cn1nccc1Nc1ncc(Cl)c(-c2cc3n(c2)C(=O)N([C@H](CO)c2cccc(Cl)c2)C3)n1 [Example 2, (S)-6-(5-Chloro-2-((1-methyl-1H-pyrazol-5-yl)amino)pyrimidin-4-yl)-2-(1-(3-chlorophenyl)-2-hydroxyethyl)-1H-pyrrolo[1,2-c]imidazol-3(2H)-one]",32,3,
"COc1cc(F)cc([C@@H](CO)N2Cc3cc(-c4nc(Nc5ccnn5C)ncc4C)cn3C2=O)c1 [Example 1, (S)-2-(1-(3-Fluoro-5-methoxyphenyl)-2-hydroxyethyl)-6-(5-methyl-2-((1-methyl-1H-pyrazol-5-yl)amino)pyrimidin-4-yl)-1H-pyrrolo[1,2-c]imidazol-3(2H)-one]",90,2,9
"Cc1cnc(Nc2ccnn2C)nc1-c1cc2n(c1)C(=O)N([C@H](CN)c1cccc(Cl)c1)C2 [Example 11, (S)-2-(2-Amino-1-(3-chlorophenyl)ethyl)-6-(5-methyl-2-((1-methyl-1H-pyrazol-5-yl)amino)pyrimidin-4-yl)-1H-pyrrolo[1,2-c]imidazol-3(2H)-one]",,18,
"O=C1N([C@H](CO)c2cccc(Cl)c2)Cc2cc(-c3nc(NC4CC(O)C(F)C4)ncc3Cl)cn21 (stereo partly drawn) [Example 7, 6-(5-Chloro-2-((3-fluoro-4-hydroxycyclopentyl)amino)pyrimidin-4-yl)-2-((S)-1-(3-chlorophenyl)-2-hydroxyethyl)-1H-pyrrolo[1,2-c]imidazol-3(2H)-one]",158,63,
"CNC[C@H](c1cccc(Cl)c1)N1Cc2cc(-c3nc(Nc4ccnn4C)ncc3C)cn2C1=O [Example 13, (S)-2-(1-(3-Chlorophenyl)-2-(methylamino)ethyl)-6-(5-methyl-2-((1-methyl-1H-pyrazol-5-yl)amino)pyrimidin-4-yl)-1H-pyrrolo[1,2-c]imidazol-3(2H)-one]",99,2,2
"Cc1cnc(Nc2ccnn2C)nc1-c1cc2n(c1)C(=O)N([C@H](CO)c1cccc(Cl)c1)CC2 [Example 9, (S)-2-(1-(3-Chlorophenyl)-2-hydroxyethyl)-6-(5-methyl-2-((1-methyl-1H-pyrazol-5-yl)amino)pyrimidin-4-yl)-3,4-dihydropyrrolo[1,2-c]pyrimidin-1(2H)-one]",77,,12
"Cc1cnc(Nc2ccnn2C)nc1-c1cc2n(c1)C(=O)N([C@H](C)c1cccc(Cl)c1)C2 [Example 12, (R)-2-(1-(3-Chlorophenyl)ethyl)-6-(5-methyl-2-((1-methyl-1H-pyrazol-5-yl)amino)pyrimidin-4-yl)-1H-pyrrolo[1,2-c]imidazol-3(2H)-one]",,45,
